Here are results for one compound from patent US20080275123A1, “N-HALOGENATED AMINO ACID FORMULATIONS” (ALCON RESEARCH, LTD., priority 2007, published 2008).

For orientation: Log P means the decadic logarithm of the partition coefficient of the neutral form, usually between octanol and water. A lower Log P goes with lower lipophilicity.

One data set deals with C. albicans. The experiment in a line: Antimicrobial activity by standard microbiological analysis (viability after exposure to test agent). The data set is classed as cell-based. To be noted: when 10 mM TBAH phase transfer agent is added. How it is done: The antimicrobial activity of certain formulations described herein was evaluated by a standard microbiological analysis. For the evaluation, bacterial and fungal isolates were grown overnight on appropriate agar media as source of fresh cells. A suspension of these fresh cells was prepared in saline at approximately 1×10^8 cfu/mL. These suspensions were added directly to the test agents (various solutions of sodium 2,2-dimethyl-N,N-dichlorotaurine and control solutions). The initial concentration of cells in the test agent solutions was approximately 1×10^6 cfu/mL. The exposure of microorganisms to the test agent was conducted at room temperature for up to 60 minutes. At selected times, an aliquot was withdrawn and diluted into phosphate buffered saline at 4° C. Viability was determined following serial dilution and filtration onto Milliflex cassettes.

A short description of data set [1]: Partitioning experiment, aqueous solution / dichloromethane. In kind it is physicochemical. To be noted: 4 mM compound, pH 4; for Log P: dichloromethane/aqueous; for 2,2-dimethyl-N,N-dichlorotaurine in aqueous After Partitioning % 2,2-dimethyl-N,N-dichlorotaurine: equal volume dichloromethane overnight. The protocol: Example 6 provides evidence of ion pairing taking place between a N-halogenated amino acid and a phase transfer agent, and the resulting changes in partitioning behavior. The partitioning experiment can be used to evaluate a compound's apparent lipophilicity and the potential improvement in antimicrobial activity when used on tissue.
Aqueous solutions were prepared containing 0.1% (4 mM) sodium 2,2-dimethyl-N,N-dichlorotaurine, tetrabutylammonium hydroxide (TBAH) at 0 mM, 1 mM, 4 mM, or 10 mM, 5 mM sodium acetate, sodium chloride to adjust osmolality to isotonic, and sodium hydroxide and/or hydrochloric acid to adjust pH to 4.
These aqueous solutions were assayed for 2,2-dimethyl-N,N-dichlorotaurine by reverse phase high pressure liquid chromatography. Each solution was then combined with an equal volume of dichloromethane, mixed on a rocker overnight, and the aqueous phase reassayed. The percent loss of 2,2-dimethyl-N,N-dichlorotaurine from the aqueous phase and theoretical percent of 2,2-dimethyl-N,N-dichlorotaurine partitioning to the dichloromethane were calculated and plotted versus the concentration of TBAH.
The theoretical percentage of 2,2-dimethyl-N,N-dichlorotaurine in dichloromethane phase is calculated as 100 percent minus the percent remaining in aqueous phase. FIG. 2 graphically illustrates the results of the above-described partitioning experiment. When 4 mM 2,2-dimethyl-N,N-dichlorotaurine in aqueous solution is combined with varying concentrations of TBAH, the quantity of 2,2-dimethyl-N,N-dichlorotaurine found in the aqueous solution decreases. Without added TBAH, almost all the 2,2-dimethyl-N,N-dichlorotaurine is found in the aqueous fraction. However, with 10 mM TBAH, most of the 2,2-dimethyl-N,N-dichlorotaurine has left the aqueous fraction and partitioned to the dichloromethane. This experiment is evidence of ion pair formation with TBAH phase transfer agent, which increases the apparent lipophilicity of the 2,2-dimethyl-N,N-dichlorotaurine.

In the case of `CC(C)(CS(=O)(=O)O)N(Cl)Cl` [2,2-dimethyl-N,N-dichlorotaurine], the “antimicrobial activity (FIG. 1)” value in the data set with C. albicans is listed as “dramatically increased”. Further, in data set [1] (TBAH 0 mM), the “2,2-dimethyl-N,N-dichlorotaurine in aqueous After Partitioning % in Aqueous” value was 96.1%, the “2,2-dimethyl-N,N-dichlorotaurine in aqueous Before Partitioning % 2,2-dimethyl-N,N-dichlorotaurine” value worked out at 0.1007%, the “Calculated 2,2-dimethyl-N,N-dichlorotaurine % in CH2Cl2 After Partitioning Theory % in Dichloromethane” value is recorded as 3.9% and the “Log P” value is recorded as −1.39. Besides, in data set [1] (TBAH 0 mM), the “2,2-dimethyl-N,N-dichlorotaurine in aqueous After Partitioning % 2,2-dimethyl-N,N-dichlorotaurine” value stood at 0.09675%. In data set [1] (TBAH 1 mM), the “2,2-dimethyl-N,N-dichlorotaurine in aqueous After Partitioning % in Aqueous” value was determined as 76.1%, the “2,2-dimethyl-N,N-dichlorotaurine in aqueous Before Partitioning % 2,2-dimethyl-N,N-dichlorotaurine” value came out at 0.1008%, the “Calculated 2,2-dimethyl-N,N-dichlorotaurine % in CH2Cl2 After Partitioning Theory % in Dichloromethane” value is listed as 23.9% and the “Log P” value was −0.50. Besides, the “2,2-dimethyl-N,N-dichlorotaurine in aqueous After Partitioning % 2,2-dimethyl-N,N-dichlorotaurine” value in data set [1] (TBAH 1 mM) worked out at 0.07672%. Also, in data set [1] (TBAH 4 mM), the “2,2-dimethyl-N,N-dichlorotaurine in aqueous After Partitioning % in Aqueous” value stood at 35.4%, the “2,2-dimethyl-N,N-dichlorotaurine in aqueous Before Partitioning % 2,2-dimethyl-N,N-dichlorotaurine” value came out at 0.1008%, the “Calculated 2,2-dimethyl-N,N-dichlorotaurine % in CH2Cl2 After Partitioning Theory % in Dichloromethane” value was 64.6% and the “Log P” value was found to be 0.26. The “2,2-dimethyl-N,N-dichlorotaurine in aqueous After Partitioning % 2,2-dimethyl-N,N-dichlorotaurine” value in data set [1] (TBAH 4 mM) was 0.03573%. For the same compound, in data set [1] (TBAH 10 mM), the “2,2-dimethyl-N,N-dichlorotaurine in aqueous After Partitioning % in Aqueous” value is on record as 11.9%, the “2,2-dimethyl-N,N-dichlorotaurine in aqueous Before Partitioning % 2,2-dimethyl-N,N-dichlorotaurine” value is 0.1009%, the “Calculated 2,2-dimethyl-N,N-dichlorotaurine % in CH2Cl2 After Partitioning Theory % in Dichloromethane” value is recorded as 88.1% and the “Log P” value is listed as 0.87. Also, the “2,2-dimethyl-N,N-dichlorotaurine in aqueous After Partitioning % 2,2-dimethyl-N,N-dichlorotaurine” value in data set [1] (TBAH 10 mM) was found to be 0.01198%.
